What is called AUC is the area under the concentration-time curve, a measure of exposure. A low value points to less exposure. The term Cmax denotes the maximum level reached in the sampled fluid or tissue. By Tmax is commonly meant the time at which the peak concentration occurs.

Where two headings read alike, the source gives them in different places.

The nature of series [1]: Human plasma pharmacokinetics of thiamphenicol in healthy volunteers. The class given is in vivo. The conditions noted are these: for AUC / Cmax / half-life / Tmax: human, plasma, po.
Series [2] can be described thus: Safety and tolerability in healthy volunteers. The format is in vivo, human. The conditions noted are these: 750 or 1500 mg once a day oral, 14 days.
Description: Thirty-four normal volunteers were divided into three groups: placebo (N=6), TAP 750 mg administered orally once a day (N=12) and TAP 1500 mg administered orally once a day (N=12). Nasal biopsies were taken on day −1 (before drug treatment) and day 14. Plasma pharmacokinetics were done on day 1 and 13 and cerebrospinal fluid samples were taken on day 13 to study the levels of TAP in the brain.
R UX122 was administered in 3 groups (placebo, 750 mg/day, 1500 mg/day) starting day 1 to day 14. Blood samples were taken throughout the trial period to obtain basic pharmacokinetic analyses as well as to monitor for safety and tolerability. Every patient underwent a spinal tap to collect CSF on day 13.
In another series the test system is EAAT1 mRNA. Briefly: qPCR of nasal biopsy samples before and after drug treatment. The class given is in vivo, human. The conditions noted are these: healthy volunteers, 750 or 1500 mg once a day oral, day 14 vs day -1. On the procedure: (§1) Nasal biopsies were performed the day before the beginning of drug treatment (day −1) and on day 14. mRNA levels of several genes were quantified by qPCR analysis. Data are presented as fold increases in mRNA levels after drug treatment for each individual patient.
(§2) Nasal biopsies were taken on day −1 (before drug treatment) and day 14. […] In addition to EAAT2, the mRNA levels of the following genes were measured: GFAP (astrocytic expression in CNS), EAAT1 (astrocytic expression in CNS, expressed in precursor neuronal cells in olfactory epithelium), OMP (neuronal expression in olfactory epithelium and CNS), and MCT-4. […] The intra-patient variability was obtained by comparing mRNA levels obtained from the left and right side of the nose of each volunteer. This was important since the drug study was designed to obtain a biopsy from one side of the nose before drug treatment and from the opposite side of the nose after drug treatment. This allowed each person to serve as their own control and provided an opportunity to follow changes in mRNA levels within individuals.
(§3) Human nasal biopsies were performed by otolaryngologists specializing in sinus surgery. […] Local anesthesia was used for the procedure. Local anesthesia was applied to the nasal cavity. Lidocaine liquid 4% (Xylocaine®) and oxymetazoline HCl 0.05% (Afrin®) was sprayed in the nose. Then, if needed, 1% lidocaine with 1/100,000 epinephrine was injected to provide both anesthesia and vasoconstriction.
(§4) The procedure was performed under endoscopic control and used either a small curette or biting forceps for tissue removal. To avoid trauma to the cribriform plate, the biopsies were usually taken from the upper nasal septum. […] The tissue was removed from either the front or the back of the olfactory cleft, and sometimes both. Up to two blocks of tissue (approximately 2 mm each) were collected from each side of the nose. […] Subjects were instructed not to blow their nose and not to perform any strenuous physical activity for 24 hours after the procedure.
(§5) Healthy volunteers underwent a nasal biopsy on day −1 on one side of the nose only. R UX122 was administered in 3 groups (placebo, 750 mg/day, 1500 mg/day) starting day 1 to day 14. Blood samples were taken throughout the trial period to obtain basic pharmacokinetic analyses as well as to monitor for safety and tolerability. […] On day 14, a nasal biopsy was done on the other side of the nose.
(§6) Total RNA was reversed transcribed using Applied Biosystems' high capacity cDNA archive kit. The quantitative real time RT-PCR assay was performed using the iCycler iQ Real-Time Detection System from BioRad. TaqMan Probes, which allow for specific mRNA amplification, were purchased from Applied Biosystems.
A general note: Real-time PCR tracks product formation cycle by cycle.

The test system of the next series is EAAT2/GLT-1 mRNA. The series is described as above. The class given is in vivo, human. The conditions noted are these: healthy volunteers, 750 or 1500 mg once a day oral, day 14 vs day -1. On the procedure: as §1, §2, §3, §4, §5, §6
For another series, the system named is GFAP mRNA. The series is described as above. The format is in vivo, human. The conditions noted are these: healthy volunteers, 750 or 1500 mg once a day oral, day 14 vs day -1. The protocol: as §1, §2, §3, §4, §5, §6
In another series the test system is MCT-4 mRNA. The description is as above. The conditions noted are these: healthy volunteers, 750 or 1500 mg once a day oral, day 14 vs day -1. The format is in vivo, human. On the procedure: as §1, §2, §3, §4, §5, §6
The next series relates to OMP mRNA. The series is described as above. The format is in vivo, human. The conditions noted are these: healthy volunteers, 750 or 1500 mg once a day oral, day 14 vs day -1. The protocol:
as §1, §2, §3, §4, §5, §6

A further series concerns EAAT2 promoter. The series is described as follows: EAAT2 promoter luciferase reporter gene assay in immortalized astrocytes. The format is cell-based, human. The conditions noted are these: luciferase reporter driven by 2.5 kB EAAT2 promoter fragment, 72 hours. The protocol:
(§7) FIG. 3A is a graph showing EAAT2 promoter activation. EAAT2 promoter activation was examined by measuring luciferase activity using a reporter gene construct driven by a 2.5 kB promoter fragment of EAAT2 (Rothstein et al., Nature. 2005 Jan. 6; 433(7021):73-7). […] Glutamate-uptake was measured using standard techniques. […] Cells were then exposed to an oxygen-glucose-free environment for 1.5 hours (Goldberg et al). After the oxygen-glucose deprivation, cells were washed back into normal artificial cerebral spinal fluid (ACSF) solution and maintained for another 23 hours at 37 C, 5% CO2. Neuronal cell death was determined by measuring […] (LDH) release. Cells treated with MK-801, 6-cyano-7-nitroquinoxaline-2,3-dione), (CNQX) and nimodipine (MCN) were used as a positive control for neuroprotective activity.
In general terms: Reporter assays use an easily measured gene product as a stand-in for the process of interest.

In a further series the test system is glutamate uptake. Briefly: Glutamate uptake in primary cultures of neurons and astrocytes. The format is cell-based. The conditions noted are these: primary mouse cultures of neurons and astrocytes, 72 hours. On the procedure: as §7
Series [3] concerns primary mouse cultures of neurons and astrocytes. The series is described as follows: Oxygen-glucose deprivation (OGD) assay, neuronal cell death by LDH release. The class given is cell-based. The conditions noted are these: 72 hours treatment, then oxygen-glucose deprivation 1.5 hours. The protocol: as §7
In general terms: Release of lactate dehydrogenase indicates damage to the cell membrane.

In the next series the test system is GLT-1 mRNA. Briefly: GLT-1 mRNA in treated wild-type mice. The format is in vivo, mouse. The conditions noted are these: WT mice, 12.5 or 25 mg/kg/day oral, 10 days. The protocol:
as §6

The next series relates to EAAT2/GLT-1. Briefly: EAAT2/GLT-1 gene expression in nasal olfactory epithelium. The conditions noted are these: in vivo.
Series [4] relates to glutamate transporter EAAT2/GLT-1. The series is described as follows: Glutamate transporter function in vitro and in vivo.
The conditions of series [5]: human, in vivo.

Turning to `CS(=O)(=O)c1ccc([C@@H](O)[C@@H](CO)NC(=O)C(Cl)Cl)cc1` [TAP, thiamphenicol], the “plasma concentrations versus dose” value in series [1] (750 and 1500 mg/day oral) is “dose-related plasma concentrations”. The drug accumulation entry in series [1] (14 days once daily oral) is reported as “no drug accumulation”. Further, the exposure (AUC) in series [1] (750 mg/day, oral 750 mg/day, Day 1) came out at 42600 ng·h/mL; in series [1] (750 mg/day, oral 750 mg/day, Day 13), 51100 ng·h/mL; in series [1] (1500 mg/day, oral 1500 mg/day, Day 1) it was 88000 ng·h/mL; in [1] (1500 mg/day, oral 1500 mg/day, Day 13), 96700 ng·h/mL. The Cmax was 6310 ng/mL in series [1] (750 mg/day, oral 750 mg/day, Day 1, plasma); 6550 ng/mL in [1] (750 mg/day, oral 750 mg/day, Day 13, plasma); 10700 ng/mL in series [1] (1500 mg/day, oral 1500 mg/day, Day 1, plasma); 11000 ng/mL in series [1] (1500 mg/day, oral 1500 mg/day, Day 13, plasma). For the same compound, the half-life is 4.1 ± 0.8 h in [1] (750 mg/day, oral 750 mg/day, Day 1, read-out: T ½ (converted)); 4.8 ± 0.6 h in series [1] (750 mg/day, oral 750 mg/day, Day 13, read-out: T ½ (converted)); 4.2 ± 0.5 h in [1] (1500 mg/day, oral 1500 mg/day, Day 1, read-out: T ½ (converted)); 5.7 ± 1 h in [1] (1500 mg/day, oral 1500 mg/day, Day 13, read-out: T ½ (converted)); 4 to 6 h in [1] (750 and 1500 mg/day oral, read-out: average half life). Also, the Tmax was 2 h in series [1] (750 mg/day, oral 750 mg/day, Day 1, read-out: Tmax median(range)); 2 h in series [1] (750 mg/day, oral 750 mg/day, Day 13, read-out: Tmax median(range)); 2.5 h in [1] (1500 mg/day, oral 1500 mg/day, Day 1, read-out: Tmax median(range)); 2 h in series [1] (1500 mg/day, oral 1500 mg/day, Day 13, read-out: Tmax median(range)). In series [2], the serious adverse side-effects entry is listed as “no serious adverse side-effects were reported”. Moreover, in series [2], the tolerability entry is “well tolerated at every dose”. Also, the results for the “EAAT1 mRNA levels in olfactory epithelium after drug treatment” value with EAAT1 mRNA and with EAAT1 mRNA (listed as thiamphenicol) were “no difference in mRNA levels” and “no change in gene expression levels”, respectively. The “EAAT2/GLT-1 mRNA levels in olfactory epithelium after drug treatment” value is listed as “dose-dependent positive trend towards an increase in mRNA levels” with EAAT2/GLT-1 mRNA and “positive trend towards increased gene expression levels” in the series with EAAT2/GLT-1 mRNA (listed as thiamphenicol). The “GFAP mRNA levels in olfactory epithelium after drug treatment” value is listed as “dose-dependent positive trend towards an increase in mRNA levels” in the series with GFAP mRNA and “positive trend towards increased gene expression levels” in the series with GFAP mRNA (listed as thiamphenicol). The “MCT-4 mRNA levels in olfactory epithelium after drug treatment” value in the series on MCT-4 mRNA is given as “no difference in mRNA levels”; in the series with MCT-4 mRNA (listed as thiamphenicol) it was “no change in gene expression levels”. Further, the entries for the “OMP mRNA levels in olfactory epithelium after drug treatment” value with OMP mRNA and with OMP mRNA (listed as thiamphenicol) were “no difference in mRNA levels” and “no change in gene expression levels”, respectively. The EAAT2 promoter activation result in the series on EAAT2 promoter is “activated the transporter on a promoter level”. Further, the glutamate uptake entry in the series with glutamate uptake is on record as “dose-dependently increased glutamate uptake”. For the same compound, the “neuroprotection (neuronal cell death, LDH release)” value in series [3] is reported as “dose-dependent neuroprotection”. The “GLT-1 mRNA” value with GLT-1 mRNA is recorded as “dose-dependently increased”. Moreover, in the series on EAAT2/GLT-1, the “EAAT2/GLT-1 gene expression in nasal olfactory epithelium” value is given as “increased EAAT2/GLT-1 gene expression in nasal olfactory epithelium”. In series [4], the glutamate transporter function result is “increased transporter function in vitro and in vivo”. Moreover, the “correlation between plasma concentrations and CSF levels” value in series [5] is recorded as “linear correlation”.

As to `CO/N=C(\C(=O)N[C@@H]1C(=O)N2C(C(=O)O)=C(CSc3nc(=O)c(=O)[nH]n3C)CS[C@H]12)c1csc(N)n1` [ceftriaxone], the EAAT2 promoter activation result in the series on EAAT2 promoter is recorded as “activated the transporter on a promoter level”. For the same compound, the “EAAT2/GLT-1 gene expression in nasal olfactory epithelium” value in the series on EAAT2/GLT-1 is given as “increased EAAT2/GLT-1 gene expression in nasal olfactory epithelium”. The glutamate transporter function entry in series [4] is “increased transporter function in vitro and in vivo”.

Values taken from patent US20120094295A1, “NEURODEGENERATIVE DISEASE DIAGNOSTIC COMPOSITIONS AND METHODS OF USE” (The Johns Hopkins University, priority 2008, published 2012).
